Test results taken from patent EP4230621A1, “SUBSTITUTED N-BENZOIC ACID URACILS, THEIR SALTS AND USE OF SAID COMPOUNDS AS HERBICIDAL AGENTS” (Bayer AG, priority 2022, dated 2023).

How the values were obtained:
Type in all cases: in vivo
Abutilon theophrasti = experiment: Post-emergence herbicidal action against ABUTH (greenhouse pot test); settings: visual rating after ca. 3 weeks vs untreated controls (100% = plants dead, 0% = like controls)
Excerpt: (§1) Die folgenden Abkürzungen werden für die in den folgenden Tabellen aufgeführten Kultur- und Schadpflanzen verwendet: ABUTH: Abutilon theophrasti ALOMY: Alopecurus myosuroides AMARE: Amaranthus retroflexus BRSNS: Brassica napus DIGSA: Digitaria sanguinalis ECHCG: Echinochloa crus-galli GLXMA: Glycine max KCHSC: Kochia scoparia LOLRI: Lolium rigidum MATIN: Matricaria inodora ORYZA: Oryza sativa PHPBU: Pharbitis purpurea POLCO: Polygonum convolvulus SETVI: Setaria viridis VERPE: Veronica persica VIOTR: Viola tricolor TRZAS: Triticum aestivum ZEAMX: Zea mays
(§2) Samen von mono- bzw. dikotylen Unkrautpflanzen wurden in Kunststoff- oder Holzfasertöpfen in sandigem Lehmboden ausgelegt, mit Erde abgedeckt und im Gewächshaus unter kontrollierten Wachstumsbedingungen angezogen. 2 bis 3 Wochen nach der Aussaat wurden die Versuchspflanzen im Einblattstadium behandelt. Die in Form von benetzbaren Pulvern (WP) oder als Emulsionskonzentrate (EC) formulierten erfindungsgemäßen Verbindungen wurden dann als wässrige Suspension bzw. Emulsion unter Zusatz von 0,5% Additiv mit einer Wasseraufwandmenge von umgerechnet 600 1/ha auf die grünen Pflanzenteile gesprüht. Nach ca. 3 Wochen Standzeit der Versuchspflanzen im Gewächshaus, unter optimalen Wachstumsbedingungen, wurde die Wirkung der Präparate visuell im Vergleich zu unbehandelten Kontrollen bonitiert. Beispielsweise bedeutet 100% Wirkung = Pflanzen sind abgestorben, 0% Wirkung = wie Kontrollpflanzen.
(§3) In den nachstehenden Tabellen A1 bis A11 sind die Wirkungen ausgewählter Verbindungen der allgemeinen Formel (I) gemäß der Tabelle 1 auf verschiedene Schadpflanzen und einer Aufwandmenge entsprechend 80 g/ha und niedriger, die gemäß zuvor genannter Versuchsvorschrift erhalten wurden, dargestellt. Tabelle A1a: Nachauflaufwirkung bei 5 g/ha gegen ABUTH in %

Alopecurus myosuroides = experiment: Post-emergence herbicidal action against ALOMY (greenhouse pot test); settings: visual rating after ca. 3 weeks vs untreated controls (100% = plants dead, 0% = like controls)
Excerpt: as §1, §2, §3

Amaranthus retroflexus = experiment: Post-emergence herbicidal action against AMARE (greenhouse pot test); settings: visual rating after ca. 3 weeks vs untreated controls (100% = plants dead, 0% = like controls)
Excerpt: as §1, §2, §3

Digitaria sanguinalis = experiment: Post-emergence herbicidal action against DIGSA (greenhouse pot test); settings: visual rating after ca. 3 weeks vs untreated controls (100% = plants dead, 0% = like controls)
Excerpt: as §1, §2, §3

Lolium rigidum = experiment: Post-emergence herbicidal action against LOLRI (greenhouse pot test); settings: 80 g/ha, visual rating after ca. 3 weeks vs untreated controls (100% = plants dead, 0% = like controls)
Excerpt: as §1, §2, §3

Matricaria inodora = experiment: Post-emergence herbicidal action against MATIN (greenhouse pot test); settings: for Nachauflaufwirkung gegen MATIN: visual rating after ca. 3 weeks vs untreated controls (100% = plants dead, 0% = like controls); for Nachauflaufwirkung gegen MATIN in %: 80 g/ha
Excerpt: as §1, §2, §3

Pharbitis purpurea = experiment: Post-emergence herbicidal action against PHBPU (greenhouse pot test)
Excerpt: as §1, §2, §3

Polygonum convolvulus = experiment: Post-emergence herbicidal action against POLCO (greenhouse pot test)
Excerpt: as §1, §2, §3

Setaria viridis = experiment: Post-emergence herbicidal action against SETVI (greenhouse pot test)
Excerpt: as §1, §2, §3

Veronica persica = experiment: Post-emergence herbicidal action against VERPE (greenhouse pot test)
Excerpt: as §1, §2, §3

Viola tricolor = experiment: Post-emergence herbicidal action against VIOTR (greenhouse pot test)
Excerpt: as §1, §2, §3

Triticum aestivum = experiment: Post-emergence action on crop plants, TRZAS (greenhouse pot test); settings: crop plant
Excerpt: as §1
as §2, with “Kulturpflanzen” for “Unkrautpflanzen”
as §3, with “B1” for “A1”, “B3” for “A11”, “Kulturpflanzen” for “Schadpflanzen”, “20” for “80”, “B1a:” for “A1a:”, “ZEAMX” for “ABUTH”

Zea mays = experiment: Post-emergence action on crop plants, ZEAMX (greenhouse pot test); settings: 5 g/ha, crop plant
Excerpt: as §1
as §2, with “Kulturpflanzen” for “Unkrautpflanzen”
as §3, with “B1” for “A1”, “B3” for “A11”, “Kulturpflanzen” for “Schadpflanzen”, “20” for “80”, “B1a:” for “A1a:”, “ZEAMX” for “ABUTH”

| SMILES | Nachauflaufwirkung gegen ABUTH (Abutilon theophrasti; 5 g/ha) | Nachauflaufwirkung gegen ABUTH (Abutilon theophrasti; 20 g/ha) | Nachauflaufwirkung gegen ABUTH (Abutilon theophrasti; 80 g/ha) | Nachauflaufwirkung gegen ALOMY (Alopecurus myosuroides; 20 g/ha) | Nachauflaufwirkung gegen ALOMY (Alopecurus myosuroides; 80 g/ha) | Nachauflaufwirkung gegen AMARE (Amaranthus retroflexus; 5 g/ha) | Nachauflaufwirkung gegen AMARE (Amaranthus retroflexus; 20 g/ha) | Nachauflaufwirkung gegen AMARE (Amaranthus retroflexus; 80 g/ha) | Nachauflaufwirkung gegen DIGSA (Digitaria sanguinalis; 5 g/ha) | Nachauflaufwirkung gegen DIGSA (Digitaria sanguinalis; 20 g/ha) | Nachauflaufwirkung gegen DIGSA (Digitaria sanguinalis; 80 g/ha) | Nachauflaufwirkung gegen LOLRI (Lolium rigidum) | Nachauflaufwirkung gegen MATIN (Matricaria inodora; 5 g/ha) | Nachauflaufwirkung gegen MATIN (Matricaria inodora; 20 g/ha) | Nachauflaufwirkung gegen MATIN in % (Matricaria inodora) | Nachauflaufwirkung gegen PHBPU in % (Pharbitis purpurea; 5 g/ha) | Nachauflaufwirkung gegen PHBPU in % (Pharbitis purpurea; 20 g/ha) | Nachauflaufwirkung gegen PHBPU in % (Pharbitis purpurea; 80 g/ha) | Nachauflaufwirkung gegen POLCO in % (Polygonum convolvulus; 5 g/ha) | Nachauflaufwirkung gegen POLCO in % (Polygonum convolvulus; 20 g/ha) | other results |
| --- | --- | --- | --- | --- | --- | --- | --- | --- | --- | --- | --- | --- | --- | --- | --- | --- | --- | --- | --- | --- | --- |
| Cn1c(C(F)(F)F)cc(=O)n(-c2cc(C(=O)OC(C)(C)C(=O)OCC#N)c(Cl)cc2F)c1=O [I.1-176, 1-(Cyanmethoxy)-2-methyl-1-oxopropan-2-yl-2-chlor-4-fluor-5-[3-methyl-2,6-dioxo-4-(trifluormethyl)-3,6-dihydropyrimidin-1(2H)-yl]benzoat] | 100% | 100% | 100% | 80% | 100% | 100% | 100% | 100% | 100% | 100% | 100% | 90% | 100% | 100% | 100% | 100% | 100% | 100% | 100% | 100% | Nachauflaufwirkung gegen POLCO in % (Polygonum convolvulus; 80 g/ha): 100%; Nachauflaufwirkung gegen SETVI in % (Setaria viridis; 5 g/ha): 100%; Nachauflaufwirkung gegen SETVI in % (Setaria viridis; 20 g/ha): 100%; Nachauflaufwirkung gegen SETVI in % (Setaria viridis; 80 g/ha (dose column; title A9c prints 20 g/ha)): 100%; Nachauflaufwirkung gegen VERPE in % (Veronica persica; 5 g/ha): 100%; Nachauflaufwirkung gegen VERPE in % (Veronica persica; 20 g/ha): 100%; Nachauflaufwirkung gegen VERPE in % (Veronica persica; 80 g/ha): 100%; Nachauflaufwirkung gegen VIOTR in % (Viola tricolor; 5 g/ha): 100%; Nachauflaufwirkung gegen VIOTR in % (Viola tricolor; 20 g/ha): 100%; Nachauflaufwirkung gegen VIOTR in % (Viola tricolor; 80 g/ha): 100%; Nachauflaufwirkung gegen TRZAS in % (Triticum aestivum; 5 g/ha): 10%; Nachauflaufwirkung gegen TRZAS in % (Triticum aestivum; 20 g/ha): 10% |
| CC(C)=NOC(=O)C(C)(C)OC(=O)c1cc(-n2c(=O)cc(C(F)(F)F)n(C)c2=O)c(F)cc1Cl [I.1-476] | 100% | 100% | 100% | 100% | 100% | 100% | 100% | 100% | 100% | 100% | 100% | 100% | 100% | 100% | 100% | 100% | 100% | 100% | 100% | 100% | Nachauflaufwirkung gegen POLCO in % (Polygonum convolvulus; 80 g/ha): 100%; Nachauflaufwirkung gegen SETVI in % (Setaria viridis; 5 g/ha): 100%; Nachauflaufwirkung gegen SETVI in % (Setaria viridis; 20 g/ha): 100%; Nachauflaufwirkung gegen SETVI in % (Setaria viridis; 80 g/ha): 100%; Nachauflaufwirkung gegen VERPE in % (Veronica persica; 5 g/ha): 100%; Nachauflaufwirkung gegen VERPE in % (Veronica persica; 20 g/ha): 100%; Nachauflaufwirkung gegen VERPE in % (Veronica persica; 80 g/ha): 100%; Nachauflaufwirkung gegen VIOTR in % (Viola tricolor; 5 g/ha): 100%; Nachauflaufwirkung gegen VIOTR in % (Viola tricolor; 20 g/ha): 100%; Nachauflaufwirkung gegen VIOTR in % (Viola tricolor; 80 g/ha): 100%; Nachauflaufwirkung gegen ZEAMX in % (Zea mays): 20%; Nachauflaufwirkung gegen TRZAS in % (Triticum aestivum; 5 g/ha): 10%; Nachauflaufwirkung gegen TRZAS in % (Triticum aestivum; 20 g/ha): 10% |
